In PubChem BioAssay AID1033 (Sanford-Burnham Center for Chemical Genomics, 2008) one finds Kd data, which are given here for 74 compounds.

The structures appear in SMILES notation. pKd: −log10 of the molar value. Calls of active or inactive are those of the source. No rule for the calls is given here.

The test deals with Chaperone protein DnaK (Escherichia coli (strain K12)) (UniProt P0A6Y8). Briefly: binders of DnaK substrate-binding domain, biophysical, NMR, chaperone (AID 1033). Particulars: Purified DnaK SBD, NMR ligand binding.
Sequence of Chaperone protein DnaK (Escherichia coli (strain K12)) (P0A6Y8 whole entry, looked up, the tested form may be a part): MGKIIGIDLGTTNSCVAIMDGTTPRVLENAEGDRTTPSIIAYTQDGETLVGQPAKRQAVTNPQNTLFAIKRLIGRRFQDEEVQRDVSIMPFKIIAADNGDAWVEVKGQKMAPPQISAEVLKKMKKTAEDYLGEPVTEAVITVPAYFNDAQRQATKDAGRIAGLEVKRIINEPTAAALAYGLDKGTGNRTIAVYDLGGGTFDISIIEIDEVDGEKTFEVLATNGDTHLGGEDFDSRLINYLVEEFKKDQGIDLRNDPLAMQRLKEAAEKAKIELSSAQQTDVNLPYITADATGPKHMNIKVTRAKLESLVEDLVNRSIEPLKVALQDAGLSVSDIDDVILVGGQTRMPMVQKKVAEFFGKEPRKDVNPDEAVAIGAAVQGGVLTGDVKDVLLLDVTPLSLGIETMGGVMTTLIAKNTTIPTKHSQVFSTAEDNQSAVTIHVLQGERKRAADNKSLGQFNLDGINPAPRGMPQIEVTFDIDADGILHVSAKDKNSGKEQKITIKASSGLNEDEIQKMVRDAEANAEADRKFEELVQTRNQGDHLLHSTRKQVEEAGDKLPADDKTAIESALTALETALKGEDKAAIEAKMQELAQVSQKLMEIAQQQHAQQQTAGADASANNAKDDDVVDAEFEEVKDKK
By Kd is commonly meant the concentration at which binding is half-saturated. On to `COC(=O)c1oc2ccc(Cl)cc2c1NC(C)=O`, for which the Kd was > 4 mM (inactive). Same read-out and setting: next, `CSCCNC(C)=O`: > 4 mM (inactive); `CC(=O)n1c(N)nc2ccccc21`: > 4 mM (inactive); `Cc1nc(N)sc1C(=O)Nc1nccs1`: > 4 mM (inactive).

As to `O=c1c(O)c(-c2ccc(O)c(O)c2)oc2cc(O)ccc12`, the Kd is > 4 mM (inactive).

As for `O=C(NCCO)c1cc2ccccc2c(=O)s1`, the Kd was > 4 mM (inactive). Consider `CC(=O)Nc1ccc(NC(=O)c2ccnn2C)cc1`, for which the Kd is > 4 mM (inactive). As for `Cc1nc(N)sc1C(=O)N/N=C/c1ccncc1`, the Kd is > 4 mM (inactive).

In the case of `CC(=O)NC(O)C(=O)c1cccs1` (centres undefined), the Kd was > 4 mM (inactive). Consider `NC(=O)CSc1nnc2ccc(-c3ccccn3)nn12`, for which the Kd was > 4 mM (inactive). Still for that read-out and setting: the figure for `Cc1ccc(N2C(=O)C3C4C=CC(O4)C3C2=O)cc1` (centres undefined) is > 4 mM (inactive). Turning to `O=C1NC(=S)N/C1=C\c1cccc([N+](=O)[O-])c1`, the Kd was > 4 mM (inactive). For `CCOC(=O)C1CCN(c2ccc(C#N)cc2)CC1`, the Kd was > 4 mM (inactive). With `O=c1[nH]c(=S)[nH]c2c1CCC2`, the Kd was > 4 mM (inactive).

In the case of `CC(C)(C)CC(=O)N1CCC(C(N)=O)CC1`, the Kd is > 4 mM (inactive). In the case of `COc1ccc(-c2cc(=O)c3c(O)cc(O[C@H]4O[C@H](CO[C@@H]5O[C@@H](C)[C@H](O)[C@@H](O)[C@H]5O)[C@@H](O)[C@H](O)[C@H]4O)cc3o2)cc1`, the Kd is > 4 mM (inactive).

As for `Cc1ccc(CNc2ccc(O)cc2)cc1`, the Kd is > 4 mM (inactive).

`Nc1cc(=O)[nH]c(=S)n1-c1cccc(C(F)(F)F)c1`: the Kd was > 4 mM (inactive). As to `O=C(O)Cn1c(C(F)(F)F)nc2ccccc21`, the Kd is > 4 mM (inactive).

Regarding `NCc1ccc(-c2cccs2)s1`, the Kd was > 4 mM (inactive).

On to `COc1cc([C@@H]2c3cc4c(cc3[C@H](O)[C@H]3COC(=O)[C@H]23)OCO4)cc(OC)c1OC`, for which the Kd was > 4 mM (inactive). As to `CN(C)c1ccc(N2C(=O)CCC2=O)cc1`, the Kd is > 4 mM (inactive). The same measure, in the same setting: the figure for `COc1cc(/C=C/C(=O)O)cc(OC)c1OC` is > 4 mM (inactive). In the case of `N[C@@H](Cc1ccc(O)c(O)c1)C(=O)O`, the Kd is > 4 mM (inactive). Consider `CCOC(=O)c1c(C)nc2c(C#N)cnn2c1C`, for which the Kd is > 4 mM (inactive).

In the case of `CC1=C(/C=C/C(C)=C/C=C/C(C)=C/CO)C(C)(C)CCC1`, the Kd is > 4 mM (inactive). As to `Cc1cc(N(CN2CCCC2=O)C(=O)c2ccccc2)no1`, the Kd is > 4 mM (inactive). For the compound `O=S(=O)(CCN1CCCC1)c1ccccc1`, the Kd was > 4 mM (inactive). Turning to `Cc1ccn(S(=O)(=O)c2ccc(C(C)(C)C)cc2)n1`, the Kd is > 4 mM (inactive). `Cc1cc(C(=O)Nc2cccnc2)cs1`: the Kd was > 4 mM (inactive). Take `O=C(CC1NC(=O)NC1=O)Nc1ccccc1` (centres undefined): the Kd is > 4 mM (inactive). Turning to `O=c1c2ccccc2oc2ccc(O)cc12`, the Kd was > 4 mM (inactive). For the compound `CC(=O)Nc1ccc(C(=O)NC2=NCCS2)cc1`, the Kd is > 4 mM (inactive). Take `Cc1nnc(SCc2cccs2)[nH]c1=O`: the Kd is > 4 mM (inactive).

`CCSc1nnc(-c2ccccc2N)c(=O)[nH]1`: the Kd was > 4 mM (inactive). As to `CC1(C)C(=O)[C@@H]2O[C@@H]2[C@@]2(C)C1C[C@@H](O)[C@]1(C)C2CC[C@@]2(C)[C@H](c3ccoc3)OC(=O)C3OC321` (some centres undefined), the Kd was > 4 mM (inactive).

For the compound `COc1ccccc1/C=C/CN1CCOCC1`, the Kd was > 4 mM (inactive). As to `CC(C)CNc1cc(=O)n(C)c(=O)n1C`, the Kd is > 4 mM (inactive). The same measure, in the same setting: the figure for `Cn1c(=O)[nH]c(=O)c2nsnc21` is > 4 mM (inactive); for `O=c1cc(-c2ccc(O)cc2)[nH]c(=S)[nH]1` it is > 4 mM (inactive). On to `NC(=O)C(=O)NCc1ccc(Cl)cc1`, for which the Kd is > 4 mM (inactive). On to `NC1=NC(=O)C(Cc2cccc([N+](=O)[O-])c2)S1` (centres undefined), for which the Kd was > 4 mM (inactive). Still for that read-out and setting: next, `Cc1cc(=O)cc(C)n1-c1ccccc1N1CCOCC1`: > 4 mM (inactive).

With `S=C(CN1CCCC1=S)N1CCOCC1`, the Kd is > 4 mM (inactive). The same measure, in the same setting: next, `Cc1cc(C(=O)Nc2ccccn2)no1`: > 4 mM (inactive).

With `O=C1CCC(=O)N1c1nc2ccccc2s1`, the Kd is > 4 mM (inactive). The same measure, in the same setting: the figure for `O=C(O)c1ccnn1-c1ccccc1` is > 4 mM (inactive). In the case of `Cc1oc(-c2ccccc2)nc1CCO`, the Kd is > 4 mM (inactive). Turning to `COCC(=O)Nc1c(C(N)=O)oc2ccccc12`, the Kd is > 4 mM (inactive). Regarding `COc1ccc2c(c1)OCc1c-2oc2cc(OC)ccc12`, the Kd is > 4 mM (inactive). With `CC(=O)OC1CCC2(C)C(=CC=C3C2CCC2(C)C3CCC2C(C)/C=C/C(C)C(C)C)C1(C)C` (centres undefined), the Kd is > 4 mM (inactive). Take `Nc1ccc(CN2CCS(=O)(=O)CC2)cc1`: the Kd was > 4 mM (inactive).

`COc1cc(O)c(C)c(O)c1`: the Kd is > 4 mM (inactive). Take `Cc1cc(=O)[nH]c(N)n1`: the Kd was > 4 mM (inactive).

Take `CCc1ccccc1OCc1nnc(N)s1`: the Kd was > 4 mM (inactive). Turning to `COc1ccc(-c2coc3c(OC)c(OC)cc(OC)c3c2=O)cc1`, the Kd was > 4 mM (inactive).

Consider `N[C@@H](Cc1cc(I)c(Oc2cc(I)c(O)c(I)c2)c(I)c1)C(=O)O`, for which the Kd was > 4 mM (inactive). In the case of `O=C(CN1C(=O)c2cccc3cccc(c23)C1=O)NO`, the Kd is > 4 mM (inactive). In the case of `Cc1ccc(C(C)C)cc2c(C)ccc1-2`, the Kd is > 4 mM (inactive). In the case of `CCc1noc(C)c1C(=O)N1CCOCC1`, the Kd was > 4 mM (inactive). What is called pKd is −log10 of the Kd, conventionally taken in molar units. Turning to `O=C(Nc1ccc2[nH]ccc2c1)c1cccs1`, the pKd was over 3.70. Turning to `COC(=O)Nc1nc2c(s1)CCCC2`, the Kd was > 4 mM (inactive). Same read-out and setting: next, `NNc1ncnc2sccc12`: > 4 mM (inactive). The same measure, in the same setting: the figure for `O=C(NCc1ccccc1)c1ccc[n+]([O-])c1` is > 4 mM (inactive); for `CC(=O)Nc1cccc(-c2nnc3n2CC(C)S3)c1` (centres undefined) it is > 4 mM (inactive); for `Cn1cnc2c(cnn2-c2ccccc2)c1=O` it is > 4 mM (inactive).

Regarding `CC(=O)N1CCN(c2ccc(N)cc2)CC1`, the Kd was > 4 mM (inactive). Same read-out and setting: next, `COc1ccc2c3c([nH]c2c1)C(C)=NCC3`: > 4 mM (inactive); `Nc1ccc(S(=O)(=O)N2CCOCC2)cc1`: > 4 mM (inactive). The same measure, in the same setting: the figure for `OCc1ccc2c(c1)OCCCO2` is > 4 mM (inactive); for `CCn1c(C)c(C(C)=O)c(N2CCN(C)CC2)nc1=S` it is > 4 mM (inactive). Turning to `CC1CCC2(OC1)OC1CC3C4CC[C@H]5C[C@@H](O)CC[C@]5(C)C4CC(=O)[C@]3(C)C1C2C` (some centres undefined), the Kd was > 4 mM (inactive). Regarding `Cc1nnc(SCc2ccc(F)cc2)s1`, the Kd was > 4 mM (inactive). On the same count and under the same terms, next, `CNC(=O)c1ccc([N+](=O)[O-])cc1Cl`: > 4 mM (inactive).
